Measured values reported in paper PMC5460925, “Degradation Paradigm of the Gut Hormone, Pancreatic Polypeptide, by Hepatic and Renal Peptidases” (Endocrinology, 2017).
Where no end group is shown, it is not given here.

How the values were obtained:
[1] = test system: food intake in C57/BL6 mice; test: Acute feeding studies (food intake) in overnight-fasted mice; assay type: in vivo, mouse; conditions: for inhibition of food intake over 24 hours vs saline: 0 to 24 hours
Protocol: All animal procedures were approved by the British Home Office, under the United Kingdom Animal (Scientific Procedures) Act 1986 (project license, 70/6402). Adult male C57/BL6 mice (Harlan, Wyton, UK) weighing 20 to 25 g were maintained in individual cages under controlled temperature (21°C to 23°C) and light (12-hour light/dark cycle, with lights on at 7:00 AM). The mice had ad libitum access to water and normal chow RM1 (Special Diet Services, Devon, UK), unless stated otherwise. For acclimatization, the mice were regularly handled and given 2 sham subcutaneous (SC) and/or intraperitoneal (IP) injections of saline. Before each feeding study, the mice were fasted overnight, and the injections were performed during the early light phase (8:00 to 10:00 AM). The mice were stratified by body weight. To investigate the anorectic effects of DPPIV-resistant analogs, the mice were stratified into treatment groups and administered a SC injection (maximum volume, 100 µL) of vehicle, PP, PP3-36, PP2-36, or PP-Ala0 (n = […]). Food intake was measured at 1, 2, 4, and 8 hours after injection to compare the peptides with short half-lives (PP and its endogenous degradation product, PP3-36) and, in a separate experiment, at 24 hours after injection for peptides with modifications (PP-Ala0 and PP2-36, using PP as the comparator). A PP analog with global modifications for enzyme resistance (PP-x) was also investigated and administered as a SC injection (maximum volume, 100 µL) at a high and low dose (n = 9). Food intake was measured at 1, 2, 4, and 8 hours after injection. […] This dose of phosphoramidon was sufficient to inhibit NEP activity ([30]). Food intake was measured at 1, 2, 4, 8, 24, and 48 hours after injection.

[2] = target: T1, mouse Y4 receptor (Mus musculus, UniProt Q61041); test: Y4 receptor binding assay (125I-PP competition)
T1 construct: expressed in transfected cells; host or cells: HEK293
Protocol: Transfected HEK293 cells overexpressing the mouse Y4 receptor were prepared and binding assays performed as previously described ([29]). Isolated cell membranes (protein concentration, 1 to 2 µg/mL) were incubated for 90 minutes in siliconized polypropylene tubes together with ^125I-PP [1 kBq (100 pM)] and a dose response of unlabeled competing peptides at 4°C in binding buffer [20 mM HEPES (pH 7.4), 1 mM MgCl2, 5 mM CaCl2, 0.1% bovine serum albumin, and protease inhibitors (0.2 mM phenylmethylsulfonyl fluoride, 0.1 mM Diprotin A, and 10 µM phosphoramidon ( all from Sigma-Aldrich)] in a final assay volume of 0.5 mL. PP was iodinated as previously described ([8]) using ^125I from GE Healthcare Life Sciences (Amersham, UK). Pelleted membranes were washed with 5 mL ice-cold assay buffer, and the membranes were centrifuged at 15,874g for 3 minutes at 4°C, as described, to separate bound and free label. Bound radioactivity was measured using a γ-counter (NE 1600; NE Technology Ltd, Reading, UK). Specific binding was calculated as the difference between the amount of ^125I-PP bound in the absence (total binding) and presence of 5 μM unlabeled competing peptide (nonsaturable binding). All curves were performed with points in triplicate. Half maximal inhibitory concentration values were calculated using Prism, version 5.01 (GraphPad Software Inc., San Diego, CA) using a three-parameter logistic equation for the nonlinear regression fit: Y = bottom + (top − bottom)/1 + 10^(LogEC50 − X), where EC50 is the half maximal effective concentration.

[3] = in vivo; design: species or system mouse; conditions: sc
Protocol: The mice were divided into four treatment groups according to body weight. A protocol similar to that used for the phosphoramidon feeding study was used, with an IP injection, followed by a SC injection 15 minutes later (maximum volume, 50 µL for each injection) of phosphoramidon (0, 7, 20, and 60 mg/kg IP), followed by PP (150 nmol/kg SC in saline; n = 4 to 6; […]). […] Additional mice (n = 2) underwent overnight fasting and were culled at 0 minutes after injection of the control substances (saline SC and vehicle IP) for measurement of the baseline levels of circulating PP. The blood was immediately removed via cardiac puncture and centrifuged at 6000 rpm (Sigma 3K18; 12348 rotor; Sigma-Aldrich) for 10 minutes. The plasma was stored at −20°C until analysis. The plasma samples were assayed using an established in-house PP RIA ([8]). The anti-PP antibody was elevated in rabbit against human PP and recognized PP (and other truncated forms) but not in other PP-fold peptides or gastrointestinal peptides. ^125I-PP was prepared using the iodogen method and purified using HPLC. The assay was performed in duplicate in a total volume of 700 µL of 0.06 M phosphate buffer (pH 7.35) containing 0.3% bovine serum albumin. The samples were incubated for 3 days at 4°C before separation of free and antibody-bound ^125I-PP using dextran-coated charcoal. The sensitivity was ≤5 fmol/tube. The intra-assay coefficient of variation was 6%.

[4] = 150 nmol/kg SC, overnight-fasted C57/BL6 mice, n = 7

T1 sequence (Q61041 whole entry): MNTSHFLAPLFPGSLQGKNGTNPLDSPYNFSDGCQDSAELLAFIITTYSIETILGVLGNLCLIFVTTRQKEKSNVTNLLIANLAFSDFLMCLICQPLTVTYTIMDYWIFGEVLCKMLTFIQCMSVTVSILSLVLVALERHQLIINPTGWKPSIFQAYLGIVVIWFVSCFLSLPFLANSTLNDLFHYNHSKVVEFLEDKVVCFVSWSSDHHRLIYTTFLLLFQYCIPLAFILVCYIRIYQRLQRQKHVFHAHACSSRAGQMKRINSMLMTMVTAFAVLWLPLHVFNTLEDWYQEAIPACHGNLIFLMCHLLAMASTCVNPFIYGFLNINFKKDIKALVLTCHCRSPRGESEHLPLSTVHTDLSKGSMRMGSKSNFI

Compound: CC[C@H](C)[C@H](NC(=O)[C@H](Cc1ccc(O)cc1)NC(=O)[C@H](CCCNC(=N)N)NC(=O)[C@H](CCCNC(=N)N)NC(=O)[C@H](CC(C)C)NC(=O)[C@H](CC(=O)O)NC(=O)[C@H](C)NC(=O)[C@H](C)NC(=O)[C@H](Cc1ccc(O)cc1)NC(=O)[C@H](CCC(N)=O)NC(=O)[C@H](C)NC(=O)[C@H](CCSC)NC(=O)[C@H](CCC(N)=O)NC(=O)[C@H](CCC(=O)O)NC(=O)[C@@H]1CCCN1C(=O)[C@@H](NC(=O)[C@H](C)NC(=O)[C@H](CC(N)=O)NC(=O)[C@H](CC(=O)O)NC(=O)CNC(=O)[C@@H]1CCCN1C(=O)[C@H](Cc1ccc(O)cc1)NC(=O)[C@@H](NC(=O)[C@@H]1CCCN1C(=O)[C@H](CCC(=O)O)NC(=O)[C@H](CC(C)C)NC(=O)[C@@H]1CCCN1)C(C)C)[C@@H](C)O)C(=O)N[C@@H](CC(N)=O)C(=O)N[C@@H](CCSC)C(=O)N[C@@H](CC(C)C)C(=O)N[C@H](C(=O)N[C@@H](CCCNC(=N)N)C(=O)N1CCC[C@H]1C(=O)N[C@@H](CCCNC(=N)N)C(=O)N[C@@H](Cc1ccc(O)cc1)C(N)=O)[C@@H](C)O [PP2-36]
- inhibition of food intake over 24 hours vs saline [1, 4]: statistically significant inhibition of food intake

Compound: CC[C@H](C)[C@H](NC(=O)[C@H](Cc1ccc(O)cc1)NC(=O)[C@H](CCCNC(=N)N)NC(=O)[C@H](CCCNC(=N)N)NC(=O)[C@H](CC(C)C)NC(=O)[C@H](CC(=O)O)NC(=O)[C@H](C)NC(=O)[C@H](C)NC(=O)[C@H](Cc1ccc(O)cc1)NC(=O)[C@H](CCC(N)=O)NC(=O)[C@H](C)NC(=O)[C@H](CCSC)NC(=O)[C@H](CCC(N)=O)NC(=O)[C@H](CCC(=O)O)NC(=O)[C@@H]1CCCN1C(=O)[C@@H](NC(=O)[C@H](C)NC(=O)[C@H](CC(N)=O)NC(=O)[C@H](CC(=O)O)NC(=O)CNC(=O)[C@@H]1CCCN1C(=O)[C@H](Cc1ccc(O)cc1)NC(=O)[C@@H](NC(=O)[C@@H]1CCCN1C(=O)[C@H](CCC(=O)O)NC(=O)[C@H](CC(C)C)NC(=O)[C@@H]1CCCN1C(=O)[C@H](C)NC(=O)[C@H](C)N)C(C)C)[C@@H](C)O)C(=O)N[C@@H](CC(N)=O)C(=O)N[C@@H](CCSC)C(=O)N[C@@H](CC(C)C)C(=O)N[C@H](C(=O)N[C@@H](CCCNC(=N)N)C(=O)N1CCC[C@H]1C(=O)N[C@@H](CCCNC(=N)N)C(=O)N[C@@H](Cc1ccc(O)cc1)C(N)=O)[C@@H](C)O [PP-Ala0]
- IC50 ([2]; membranes of HEK293 cells overexpressing mouse Y4 receptor, competition with 125I-PP (100 pM), 90 min, 4°C, mean ± SEM of three to five separate experiments, read-out: IC50 (half maximal inhibitory concentration), Y4 receptor binding affinity): 0.35 ± 0.05 nM
- inhibition of food intake over 24 hours vs saline [1, 4]: statistically significant inhibition of food intake
- level at time molar at 0.75 h ([3]; male, C57BL/6, mouse, 150 nmol/kg, plasma level of PP-Ala0 at 45 minutes, alone): 4.92 ± 0.48 nM
- level at time molar at 1.5 h ([3]; male, C57BL/6, mouse, 150 nmol/kg, plasma level of PP-Ala0 at 90 minutes, alone): 1.81 ± 0.319 nM
- decrease of plasma level (peptide cleared) between 45 and 90 minutes after injection ([3]; mouse): 60%

Compound: CC(C)C[C@H](NP(=O)(O)O[C@@H]1O[C@@H](C)[C@H](O)[C@@H](O)[C@H]1O)C(=O)N[C@@H](Cc1c[nH]c2ccccc12)C(=O)O [phosphoramidon]
- effect on food intake, inhibitor alone ([1]; phosphoramidon 5 mg/kg IP then saline SC, any interval up to 48 hours): did not cause a substantial reduction of food intake

Compound: N[C@@H](CC(=O)N1CCn2c(nnc2C(F)(F)F)C1)Cc1cc(F)c(F)cc1F [sitagliptin]
- effect on food intake, inhibitor alone ([1]; sitagliptin 6 mg/kg IP then saline SC, any interval up to 8 hours): did not cause a substantial reduction of food intake

Compound: GAPLEPTYPGDNATPEQLARYAAALRRYINKLTRPRY-NH2 (C-terminus assumed) [PP-x]
- cumulative food intake at 8 hours (0- to 8-hour interval), low dose ([1]; 25 nmol/kg SC, overnight-fasted C57BL/6 mice, n = 9, mean ± SEM): 1.98 ± 0.14 g
- food intake at 8 hours, high dose ([1]; 150 nmol/kg SC, overnight-fasted C57BL/6 mice, n = 9, mean ± SEM): 1.04 ± 0.09 g
- plasma level at 120 minutes relative to PP ([3]; mouse): almost threefold
- level at time molar at 0.5 h ([3]; mouse, 100 nmol/kg, plasma peptide level at 30 minutes after injection): 26.9 nM
- level at time molar at 2 h ([3]; mouse, 100 nmol/kg, plasma peptide level at 120 minutes after injection): 5.81 ± 0.215 nM

Compound: PP3-36: DPPIV degradation product of PP (LEPVYPGDNATPEQMAQYAADLRRYINMLTRPRY-NH2; ends and bridges not checked; UniProt P01298 32-65, looked up, fragment)
- affinity to the Y4 receptor compared with PP ([2]; DPPIV degradation product compared with PP, statement in discussion): no substantial reduction in affinity
- cumulative food intake 0 to 8 hours ([1]; 150 nmol/kg SC, overnight-fasted C57/BL6 mice, n = 7, mean ± SEM): 1.71 ± 0.29 g
